# Test results reported in ChEMBL document CHEMBL5126537, “Influenza-existing drugs and treatment prospects” (Eur J Med Chem, 2022).
# Key:
# [1] = tested on: Influenza A virus; assay: Antiviral activity against Influenza A virus A/PR/8/34 (H1N1) infected in MDCK cells assessed as inhibition of viral entry preincubated for 1 hr followed by infection in MDCK cells measured after 1 hr by focus forming assay; format: functional, organism-based
# [2] = Cytotoxicity against MDCK cells; format: toxicity, cell-based, Canis lupus familiaris; details: dog
# [3] = Elimination half life in INH dosed mouse lungs; format: ADME, organism-based, Lung; details: in vivo, inhaled_or_intranasal
smiles,measurement,setting,value
COc1cc(OC)c2c(=O)c(O)c(-c3ccc(OC)c(OC)c3)oc2c1,IC50,[1],36 µM
NC(=O)c1nc(F)c[nH]c1=O [FAVIPIRAVIR],CC50,[2],> 2000 µg/mL
CCCCCCCC(=O)OC[C@@H](O)[C@@H](OC)[C@@H]1OC(C(=O)O)=C[C@H](NC(=N)N)[C@H]1NC(C)=O [LANINAMIVIR OCTANOATE],t1/2,[3],41 h
